Experimental findings from patent US11091485B2, “Imidazo[1′,2′:1,6]pyrido[2,3-d]pyrimidine compound as protein kinase inhibitor” (SHENGKE PHARMACEUTICALS (JIANGSU) LTD., priority 2017, dated 2021) are described below.

Some results are limits rather than exact numbers.

Assay [1] deals with PIM1 (Homo sapiens (Human), UniProt P11309). In words: Enzyme inhibition PIM1. Particulars: read-out: IC50 value of inhibition against PIM1. Format: biochemical. The method, then:
(§1) In addition, the inhibitory activities of the compounds of the present disclosure against enzyme ABL1, FLT3 and PIM1 were also tested.

In assay [2] the target is CDK6/cyclin D1 (Homo sapiens (Human), UniProt Q00534). In words: Biochemical kinase inhibition test, CDK6/cyclin D1 (similar method). Particulars: for IC50: CDK6/cyclin D1, 10 μM ATP, read-out: CDK6/Cyelin D1 IC50; for selectivity for CDK6/cyclin D1 relative to CDK4/cyclin D1: enzyme inhibitory activity, CDK6/cyclin D1 vs CDK4/cyclin D1. As to the method:
(§2) Potency determination of biochemical kinase inhibition test. Kinase activity test and IC50 determination. […] The kinase reaction was initiated by adding 1 μg (1.5 μM) of recombinant retinoblastoma protein, […] and 10μ Ci γ-32P-ATP. The reaction was incubated at 30° C. for 20 minutes, and was terminated by adding 2×Laemmli sample buffer, heated at 95° C. for three minutes, and the resulting solution was dissolved with 12% acrylamide SDS-PAGE and autoradiographed. A densitometer (Bio-Rad) was used to quantify the corresponding phosphorylated substrate protein bands. […] These reactions took place in the presence of 10 μM ATP.

Assay [3] deals with FLT3 (Homo sapiens (Human), UniProt P36888). In words: Enzyme inhibition FLT3. The class given is biochemical. Particulars: read-out: IC50 value of inhibition against FLT3. As to the method:
as §1

Assay [4] addresses CDK4/Cyclin D1 (Homo sapiens (Human), UniProt P11802). Nature of the assay: Biochemical kinase inhibition test, CDK4/Cyclin D1 (32P-ATP, Rb substrate). The following applies: recombinant CDK4/Cyclin D1; 10 μM ATP; read-out: CDK4/Cydin D1 IC50. As to the method: as §2

Sequence of PIM1 (P11309 whole entry, species assumed): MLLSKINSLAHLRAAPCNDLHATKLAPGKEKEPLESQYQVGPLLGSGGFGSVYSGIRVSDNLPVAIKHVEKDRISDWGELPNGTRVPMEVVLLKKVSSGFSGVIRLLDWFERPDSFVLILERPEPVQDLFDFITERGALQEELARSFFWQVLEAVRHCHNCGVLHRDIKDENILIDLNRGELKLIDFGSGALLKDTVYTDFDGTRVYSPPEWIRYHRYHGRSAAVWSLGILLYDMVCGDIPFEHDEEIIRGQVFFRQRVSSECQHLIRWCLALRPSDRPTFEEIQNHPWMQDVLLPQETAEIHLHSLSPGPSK
Sequence of CDK4/Cyclin D1 (P11802 whole entry): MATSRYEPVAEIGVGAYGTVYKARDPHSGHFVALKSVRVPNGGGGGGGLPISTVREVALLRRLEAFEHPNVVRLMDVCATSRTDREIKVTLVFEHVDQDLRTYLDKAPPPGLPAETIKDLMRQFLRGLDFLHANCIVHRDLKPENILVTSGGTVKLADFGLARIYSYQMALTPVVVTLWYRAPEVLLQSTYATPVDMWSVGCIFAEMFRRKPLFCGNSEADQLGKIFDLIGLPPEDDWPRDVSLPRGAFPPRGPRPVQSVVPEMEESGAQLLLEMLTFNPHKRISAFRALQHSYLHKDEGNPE
Sequence of CDK4/Cyclin D1 (P24385 whole entry partner): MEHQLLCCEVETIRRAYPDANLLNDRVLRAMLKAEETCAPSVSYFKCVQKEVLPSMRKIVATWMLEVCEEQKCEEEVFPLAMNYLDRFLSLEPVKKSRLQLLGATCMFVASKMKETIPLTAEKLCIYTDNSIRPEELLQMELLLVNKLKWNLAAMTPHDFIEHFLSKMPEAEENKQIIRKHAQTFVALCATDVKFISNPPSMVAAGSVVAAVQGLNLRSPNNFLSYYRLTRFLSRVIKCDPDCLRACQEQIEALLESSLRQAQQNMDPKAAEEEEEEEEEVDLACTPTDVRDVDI
Sequence of FLT3 (P36888 27-993, species assumed): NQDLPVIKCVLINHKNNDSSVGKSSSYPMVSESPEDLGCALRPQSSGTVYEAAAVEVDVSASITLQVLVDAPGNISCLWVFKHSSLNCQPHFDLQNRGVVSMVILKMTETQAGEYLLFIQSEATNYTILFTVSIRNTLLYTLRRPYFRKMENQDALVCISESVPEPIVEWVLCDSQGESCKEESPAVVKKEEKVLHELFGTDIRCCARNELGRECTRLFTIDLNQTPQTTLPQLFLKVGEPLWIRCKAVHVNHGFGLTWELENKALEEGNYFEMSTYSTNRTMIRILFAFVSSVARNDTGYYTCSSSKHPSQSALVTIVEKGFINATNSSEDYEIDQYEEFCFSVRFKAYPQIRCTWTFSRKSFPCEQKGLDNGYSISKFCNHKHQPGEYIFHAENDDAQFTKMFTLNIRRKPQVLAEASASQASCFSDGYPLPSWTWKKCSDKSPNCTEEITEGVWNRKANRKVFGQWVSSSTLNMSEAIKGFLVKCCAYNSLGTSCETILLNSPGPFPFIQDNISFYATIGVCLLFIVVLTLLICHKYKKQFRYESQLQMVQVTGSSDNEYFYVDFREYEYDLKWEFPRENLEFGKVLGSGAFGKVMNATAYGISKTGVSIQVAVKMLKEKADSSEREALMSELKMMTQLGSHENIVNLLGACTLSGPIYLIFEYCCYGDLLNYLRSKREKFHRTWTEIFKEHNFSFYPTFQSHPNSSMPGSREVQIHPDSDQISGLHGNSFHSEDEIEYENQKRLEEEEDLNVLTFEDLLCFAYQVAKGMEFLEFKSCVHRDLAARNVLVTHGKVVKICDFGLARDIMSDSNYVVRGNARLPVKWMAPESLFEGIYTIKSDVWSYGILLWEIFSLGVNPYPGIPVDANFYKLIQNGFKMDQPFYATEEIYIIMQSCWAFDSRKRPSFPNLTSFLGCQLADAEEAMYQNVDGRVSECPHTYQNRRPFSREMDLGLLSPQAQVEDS
Sequence of CDK6/cyclin D1 (Q00534 whole entry, species assumed): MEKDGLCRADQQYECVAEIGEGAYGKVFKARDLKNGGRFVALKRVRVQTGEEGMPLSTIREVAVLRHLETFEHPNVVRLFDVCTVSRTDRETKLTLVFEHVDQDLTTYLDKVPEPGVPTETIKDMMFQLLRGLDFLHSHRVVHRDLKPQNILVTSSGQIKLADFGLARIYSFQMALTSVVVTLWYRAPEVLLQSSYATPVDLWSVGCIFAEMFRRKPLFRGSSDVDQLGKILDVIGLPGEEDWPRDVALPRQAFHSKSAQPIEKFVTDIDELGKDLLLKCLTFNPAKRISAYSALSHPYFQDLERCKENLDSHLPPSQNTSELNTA
Sequence of CDK6/cyclin D1 (P24385 whole entry partner, species assumed): as the sequence (P24385 whole entry partner) above

`CC(C)c1cnc2ccc3cnc(Nc4ccc(N5CCNCC5)cn4)nc3n12.Cl` [Compound I-1, 9-Isopropyl-N-(5-(piperazin-1-yl)pyridin-2-yl)imidazo[1′,2′:1,6]pyrido[2,3-d]pyrimidin-2-amine hydrochloride]: the IC50 is less than 50 nM in assay [1], less than 1 nM in assay [2], less than 5 nM in assay [3] and 1 to 5 nM in assay [4]. The “selectivity for CDK6/cyclin D1 relative to CDK4/cyclin D1” value in assay [2] is “more than 5 times”.
As for `CC(C)c1cnc2ccc3cnc(Nc4ccc(N5CCN(C)CC5)cn4)nc3n12` [Compound I-2, 9-Isopropyl-N-(5-(4-methylpiperazin-1-yl)pyridin-2-yl)imidazo[1′,2′:1,6]pyrido[2,3-d]pyrimidin-2-amine], the IC50 in assay [2] and in assay [4] was less than 1 nM each time.
For `Cc1cc(Nc2ncc3ccc4ncc(C(C)C)n4c3n2)ncc1N1CCN(C)CC1` [Compound I-3], the IC50 in assay [2] and in assay [4] was 5 to 10 nM throughout.
For the compound `Cc1nc(Nc2ncc3ccc4ncc(C(C)C)n4c3n2)ccc1N1CCN(C)CC1` [Compound I-4], the IC50 in assay [2] and in assay [4] was 5 to 10 nM in each case.
In the case of `CCN1CCN(c2ccc(Nc3ncc4ccc5ncc(C(C)C)n5c4n3)nc2)CC1` [Compound I-5], the IC50 in assay [2] and in assay [4] was less than 1 nM each time.
Take `CCN1CCN(c2cnc(Nc3ncc4ccc5ncc(C(C)C)n5c4n3)cc2C)CC1` [Compound I-6]: in assay [2], the IC50 was in the range of 5 to 10 nM and the “selectivity for CDK6/cyclin D1 relative to CDK4/cyclin D1” value is on record as 2-3 times. Besides, the IC50 in assay [4] was in the range of 10 to 20 nM.
With `CCN1CCN(c2ccc(Nc3ncc4ccc5ncc(C(C)C)n5c4n3)nc2C)CC1` [Compound I-7], in assay [2], the IC50 lay in the range of 5 to 10 nM and the “selectivity for CDK6/cyclin D1 relative to CDK4/cyclin D1” value is 2-3 times. Also, in assay [4], the IC50 lay within 5 to 10 nM.
`Cc1cc(Nc2ncc3ccc4ncc(C(C)C)n4c3n2)ncc1N1CCNCC1.Cl` [Compound I-8]: the IC50 in assay [1] is less than 50 nM; in assay [2], less than 1 nM; in assay [3] it was less than 5 nM; in assay [4], 1 to 5 nM. Further, the “selectivity for CDK6/cyclin D1 relative to CDK4/cyclin D1” value in assay [2] is reported as “more than 5 times”.
With `Cc1nc(Nc2ncc3ccc4ncc(C(C)C)n4c3n2)ccc1N1CCNCC1.Cl` [Compound I-9], the IC50 in assay [1] is less than 50 nM; in assay [2], less than 1 nM; in assay [3], less than 5 nM; in assay [4], 5 to 10 nM. For the same compound, the “selectivity for CDK6/cyclin D1 relative to CDK4/cyclin D1” value in assay [2] is reported as “more than 10 times”.
As for `CC(C)c1cnc2ccc3cnc(Nc4ccc(N5CCN[C@@H](C)C5)cn4)nc3n12` [Compound I-10], the IC50 in assay [2] and in assay [4] was 5 to 10 nM each time.
`CC(C)c1cnc2ccc3cnc(Nc4ccc(N5CCNC(C)(C)C5)cn4)nc3n12` [Compound I-11]: the IC50 in assay [2] and in assay [4] was 5 to 10 nM each time.
In the case of `CC(C)c1cnc2ccc3cnc(Nc4ccc(N5C[C@@H](C)N[C@@H](C)C5)cn4)nc3n12` [Compound I-12], the IC50 in assay [2] and in assay [4] was 5 to 10 nM in each case.
Regarding `CC(C)c1cnc2ccc3cnc(Nc4cc(F)c(N5CCNCC5)cn4)nc3n12.Cl` [Compound I-13], in assay [2], the IC50 fell in the range of 5 to 10 nM and the “selectivity for CDK6/cyclin D1 relative to CDK4/cyclin D1” value is on record as 2-3 times. Also, the IC50 in assay [4] is 10 to 20 nM.
The matching figures for `CC(C)c1cnc2ccc3cnc(Nc4ccc(N5CCNCC5)c(F)n4)nc3n12.Cl` [Compound I-14]: 10 to 20 nM, 2-3 times and 20 to 50 nM.
Regarding `CC(C)c1cnc2ccc3cnc(Nc4ccc(N5CCCNCC5)cn4)nc3n12` [Compound I-15], the IC50 in assay [2] and in assay [4] was 20 to 50 nM throughout.
As to `CC(C)c1cnc2ccc3cnc(Nc4ccc(N5CCCCC5)cn4)nc3n12` [Compound I-16], the IC50 in assay [2] and in assay [4] was 20 to 50 nM in each case.
As for `CC(C)c1cnc2ccc3cnc(Nc4ccc(N5CCOCC5)cn4)nc3n12` [Compound I-17], the IC50 is less than 50 nM in assay [1], less than 1 nM in assay [2], less than 5 nM in assay [3] and 5 to 10 nM in assay [4]. The “selectivity for CDK6/cyclin D1 relative to CDK4/cyclin D1” value in assay [2] is reported as “more than 10 times”.
Turning to `Cc1cc(Nc2ncc3ccc4ncc(C(C)C)n4c3n2)ncc1N1CCOCC1` [Compound I-18], the IC50 in assay [1] was less than 50 nM; in assay [2] it was 1 to 5 nM; in assay [3], less than 5 nM; in assay [4] it was 10 to 20 nM. Besides, the “selectivity for CDK6/cyclin D1 relative to CDK4/cyclin D1” value in assay [2] was “about 4 times”.
On to `Cc1nc(Nc2ncc3ccc4ncc(C(C)C)n4c3n2)ccc1N1CCOCC1` [Compound I-19], for which the IC50 in assay [2] and in assay [4] was 5 to 10 nM each time.
Turning to `CC1CN(c2ccc(Nc3ncc4ccc5ncc(C(C)C)n5c4n3)nc2)CCO1` (stereo not drawn) [Compound I-20], the IC50 in assay [2] and in assay [4] was 5 to 10 nM throughout.
Consider `CC(C)c1cnc2ccc3cnc(Nc4ccc(N5C[C@@H](C)O[C@@H](C)C5)cn4)nc3n12` [Compound I-21], for which, in assay [2], the IC50 is 10 to 20 nM and the “selectivity for CDK6/cyclin D1 relative to CDK4/cyclin D1” value is 2-3 times. The IC50 in assay [4] is 20 to 50 nM.
In the case of `CC(C)c1cnc2ccc3cnc(Nc4ccc(N5CCC6(CCNCC6)C5)cn4)nc3n12` [Compound I-22], the IC50 in assay [2] and in assay [4] was 20 to 50 nM each time.
Take `CC(C)c1cnc2ccc3cnc(Nc4ccc(N5CCC6(CNC6)C5)cn4)nc3n12` [Compound I-23]: the IC50 in assay [2] and in assay [4] was 20 to 50 nM in each case.
On to `CC(C)c1cnc2ccc3cnc(Nc4ccc(N5CC6(CNC6)C5)cn4)nc3n12` [Compound I-24], for which the IC50 in assay [2] and in assay [4] was 20 to 50 nM throughout.
As for `CC(C)c1cnc2ccc3cnc(Nc4ccc(N5CCC6(CC5)CNC6)cn4)nc3n12` [Compound I-25], the IC50 in assay [2] and in assay [4] was 20 to 50 nM throughout.
Consider `CC(C)c1cnc2ccc3cnc(Nc4ccc(N5CC6(CCNCC6)C5)cn4)nc3n12` [Compound I-26], for which the IC50 in assay [2] and in assay [4] was 20 to 50 nM throughout.
As for `CC(C)c1cnc2ccc3cnc(Nc4ccc(N5CCNCC5)cc4F)nc3n12` [Compound I-27], the IC50 in assay [2] and in assay [4] was 50 to 100 nM each time.
For `COc1cc(OCCN(C)C)ccc1Nc1ncc2ccc3ncc(C(C)C)n3c2n1` [Compound I-28], the IC50 in assay [2] and in assay [4] was 50 to 100 nM in each case.
For the compound `COc1cc(OC2CCN(C)CC2)ccc1Nc1ncc2ccc3ncc(C(C)C)n3c2n1` [Compound I-29], the IC50 in assay [2] and in assay [4] was 50 to 100 nM each time.
Consider `COc1ccc2cc(Nc3ncc4ccc5ncc(C(C)C)n5c4n3)ccc2n1` [Compound I-30], for which the IC50 in assay [2] and in assay [4] was 50 to 100 nM in each case.
Take `Cl.c1cc(Nc2ncc3ccc4ncc(C5CCCC5)n4c3n2)ncc1N1CCNCC1` [Compound I-31]: the IC50 in assay [1] was less than 50 nM; in assay [2], less than 1 nM; in assay [3], less than 5 nM; in assay [4], 1 to 5 nM. Further, the “selectivity for CDK6/cyclin D1 relative to CDK4/cyclin D1” value in assay [2] is on record as “more than 5 times”.
Regarding `CCN1CCN(c2cnc(Nc3ncc4ccc5ncc(C6CCCC6)n5c4n3)cc2C)CC1` [Compound I-32], the IC50 in assay [2] and in assay [4] was 5 to 10 nM each time.
Regarding `Cc1cc(Nc2ncc3ccc4ncc(C5CCCC5)n4c3n2)ncc1N1CCNCC1.Cl` [Compound I-33], the IC50 in assay [1] is less than 50 nM; in assay [2], less than 1 nM; in assay [3] it was less than 5 nM; in assay [4], 5 to 10 nM. In addition, the “selectivity for CDK6/cyclin D1 relative to CDK4/cyclin D1” value in assay [2] is reported as “more than 10 times”.
As to `Cc1nc(Nc2ncc3ccc4ncc(C5CCCC5)n4c3n2)ccc1N1CCNCC1.Cl` [Compound I-34], the IC50 is less than 50 nM in assay [1], less than 1 nM in assay [2], less than 5 nM in assay [3] and 5 to 10 nM in assay [4]. For the same compound, in assay [2], the “selectivity for CDK6/cyclin D1 relative to CDK4/cyclin D1” value was “more than 10 times”.
For the compound `C[C@@H]1CN(c2ccc(Nc3ncc4ccc5ncc(C6CCCC6)n5c4n3)nc2)C[C@H](C)N1` [Compound I-35], the IC50 in assay [2] and in assay [4] was 5 to 10 nM in each case.
With `Fc1cc(Nc2ncc3ccc4ncc(C5CCCC5)n4c3n2)ncc1N1CCNCC1` [Compound I-36], the IC50 in assay [2] and in assay [4] was 10 to 20 nM each time.
With `Fc1nc(Nc2ncc3ccc4ncc(C5CCCC5)n4c3n2)ccc1N1CCNCC1` [Compound I-37], the IC50 in assay [2] and in assay [4] was 5 to 10 nM in each case.
For `Cc1cc(Nc2ncc3ccc4ncc(C5CCCC5)n4c3n2)ncc1N1CCOCC1` [Compound I-38], the IC50 was less than 50 nM in assay [1], 1 to 5 nM in assay [2], less than 5 nM in assay [3] and 10 to 20 nM in assay [4]. In addition, the “selectivity for CDK6/cyclin D1 relative to CDK4/cyclin D1” value in assay [2] is listed as “about 4 times”.
On to `C[C@@H]1CN(c2ccc(Nc3ncc4ccc5ncc(C6CCCC6)n5c4n3)nc2)C[C@H](C)O1` [Compound I-39], for which, in assay [2], the IC50 fell in the range of 10 to 20 nM and the “selectivity for CDK6/cyclin D1 relative to CDK4/cyclin D1” value is 2-3 times. Besides, the IC50 in assay [4] is 20 to 50 nM.
